Measurements from patent publication US8410170B2, “Use of isothiocyanates compounds in treating prostatic diseases and skin cancer” (Wuxi JC Pharmaceutical Technology Co., Ltd., priority 2005, dated 2013).
Blank lines part the entries; values can stand above or below the molecule they belong to.

Assays:
GSTP1 = experiment: Western blot to detect GSTP1 protein in LNCaP cells; assay type: cell-based, human; conditions: LNCaP cells exposed 24 hrs
Procedure: Western blot to detect GSTP1 protein (FIG. 1): […] The cells were harvested, washed and total cellular proteins were extracted as described previously (Wang, […], et al. […] Cancer Res 61(20): 7544-51, 2001). Fifty μg cellular extracts were separated on a SDS-PAGE, electro-transferred to nitrocellulose filters, and immunoblotted initially with antibodies against GSTP1. The same membranes were stripped and re-probed with β-actin for loading control. The result was recorded by ECL films.

Sp1 = experiment: Western blot to detect Sp1 in LNCaP cells; assay type: cell-based, human; conditions: 24 hrs
Procedure: (§1) The cells were harvested, washed and total cellular proteins were extracted as described previously (as Example 2). Fifty μg proteins were then subjected to electrophoresis in SDS-PAGE, electro-transferred to nitrocellulose filters, and immunoblotted initially with antibodies against AR, Sp1, and PSA. The same membranes were stripped and re-probed with β-actin for loading control. The result was recorded by ECL films.

PSA = experiment: Western blot to detect PSA in LNCaP cells; assay type: cell-based, human; conditions: 24 hrs
Procedure: as §1

[1] = tested on: human prostate cancer cell line LNCaP; experiment: MTT and SRB cell growth assay, LNCaP; assay type: cell-based; conditions: LNCaP; for IC50: Homo sapiens, MTT and SRB, read-out: IC50, growth inhibition
Procedure: MTT and SRB method as described in the reference (Kreis, Budman et al. 1997). Briefly, human prostate cancer cells grown exponentially were aliquoted into 96-well plates at a density of 5000 cells/200 μl per well. Twenty-four hrs after the incubation, the cells were exposed for three or seven days to serial dilutions of indicated isothiocyanate. After the incubation, 100 μl of the medium was removed from each of the wells and 50 μl solution of 3-(4,5-dimethyl-thiazol-2-yl)-2,5-diphenyltetrazolium bromide (MTT) was added, the cells were incubated for an additional 4 hrs and then 200 μl of 0.04 N HCl-isopropanol was added to each well to dissolve the black formazan precipitates. The absorbance was measured at wavelength 540 nm. For SRB method, remove the medium after 72 hrs. The cells on 96-well dishes were fixed with 10% trichloride acetic acid for 1 hr, air-dried for 24 hrs. The cells were then stained with 50 μl of SRB (sulforhodamine B) for […]. After extensive washes with 1% acetic acid for 5 times, air-dried, the purple protein-SRB complex was dissolved in 200 μl 10 mM Tris-HCl buffer (pH 10.0), and the absorbance was measured at the wavelength of 540 and 630 nm. The percent of cell survival (T/C%) were calculated based on the results of test groups to that of the control group. The semi-exponential curves of the percent of cell survival (T/C%) to the drug concentrations (FIG. 8) and IC50 were obtained by using Sigma-plot program.

LNCaP AD = experiment: MTT growth inhibition, hormone dependent LNCaP AD; assay type: cell-based; conditions: Homo sapiens, 168 h; LNCaP AD, seven days, MTT; read-out: IC50, growth inhibition
Text: (§2) The human prostate cancer cell line LNCaP AD was purchased from the American Type Culture Collection. LNCaP AI cell line was derived from LNCaP cells using a method described previously by Gao et al. (Gao, M., Ossowski, L., and Ferrari, A. C. Activation of Rb and decline in androgen receptor protein precede retinoic acid-induced apoptosis in androgen-dependent LNCaP cells and their androgen-independent derivative. J Cell Physiol, 179: 336-346, 1999). The AD and AI cells were maintained in RPMI-1640 with 10% fetal bovine serum (FBS) and charcoal stripped fetal bovine serum, penicillin-streptomycin for incubation at 5% CO2 and 37° C. respectively.
(§3) MTT: MTT and SRB method were used to determine the effects of various isothiocyanates on cell growth as described previously (Kreis, Budman et al, 1997). Briefly, human prostate cancer cell line LNCaP grown exponentially were aliquoted into 96-well plates at a density of 2500 cells/200 μl per well. Twenty-four hrs after the incubation, the cells were exposed for seven days to serial dilutions of indicated isothiocyanate or paclitaxel. […] The absorbance was measured at wavelength 540 nm. The percent of cell survival (T/C%) were calculated based on the results of test groups to that of the control group. […]

LNCaP AI = experiment: MTT growth inhibition, hormone independent LNCaP AI; assay type: cell-based; conditions: Homo sapiens, 168 h; LNCaP AI, seven days, MTT; read-out: IC50, growth inhibition
Text: as §2, §3

transcription factor Sp1 = experiment: Sp1-luc luciferase activity assay in transfected LNCaP AD cells; assay type: cell-based, human; conditions: 24 hrs
Text: The Sp1-luc and mtSp1-luc contain three tandem repeats of consensus Sp1 sites driving the luciferase gene and its mutant. […] Effectene transfection reagent and luciferase assay kit were acquired from Qiagen (Valencia, Calif., USA) and Promega (Madison, Wis., USA). Reagents for protein electrophoresis were purchased from Bio-Rad company (USA). The other chemicals were purchased from Sigma (St. Louis, Mo.) otherwise as indicated. […] (Gao, M., Ossowski, L., and Ferrari, A. C. Activation of Rb and decline in androgen receptor protein precede retinoic acid-induced apoptosis in androgen-dependent LNCaP cells and their androgen-independent derivative. J Cell Physiol, 179: 336-346, 1999). The AD and AI cells were maintained in RPMI-1640 with 10% fetal bovine serum (FBS) and charcoal stripped fetal bovine serum, penicillin-streptomycin for incubation at 5% CO2 and 37° C. respectively. […] After incubation for 24 hrs at 5% CO2 and 37° C., the cells were transfected with 1 μg/dish of SP1-luciferase gene (Sp1-luc), or its mutant mtSp1-luc using Effectene (Qiagen, Valencia, Calif.) as the transfection reagent. […] The cells were collected, washed, lysed, and the lysates were used for luciferase activity assay using Promega luciferase assay system.

SMILES: S=C=NCc1ccccc1 [BITC, benzyl isothiocyanate]
expression of GSTP1 (Western blot) (GSTP1): effectively induce
expression of Sp1 (Western blot) (Sp1): significantly inhibited
expression of PSA (Western blot) (PSA): significantly inhibited
Percent of Cell Survival (T/C %) ([1]; 0.0390 μM): 94.09%
Percent of Cell Survival (T/C %) ([1]; 0.0780 μM): 95.64%
Percent of Cell Survival (T/C %) ([1]; 0.1562 μM): 97.91%
Percent of Cell Survival (T/C %) ([1]; 0.3125 μM): 95.82%
Percent of Cell Survival (T/C %) ([1]; 0.6250 μM): 71.25%
Percent of Cell Survival (T/C %) ([1]; 1.2500 μM): 27.95%
Percent of Cell Survival (T/C %) ([1]; 2.5000 μM): 14.83%
Percent of Cell Survival (T/C %) ([1]; 5.0000 μM): 5.07%
Percent of Cell Survival (T/C %) ([1]; 10.0000 μM): 0.88%
Percent of Cell Survival (T/C %) ([1]; 20.0000 μM): 0.94%
IC50 [1]: 800 to 1500 nM

IC50 (LNCaP AD): 0.01 nM
IC50 (LNCaP AI): 0.6 nM
SMILES: CC(=O)O[C@H]1C(=O)[C@@]2(C)[C@H]([C@H](OC(=O)c3ccccc3)[C@]3(O)C[C@H](OC(=O)[C@H](O)[C@@H](NC(=O)c4ccccc4)c4ccccc4)C(C)=C1C3(C)C)[C@]1(OC(C)=O)CO[C@@H]1C[C@@H]2O [paclitaxel, reference compound]

SMILES: CC(/C=C/C(=O)NO)=C\[C@@H](C)C(=O)c1ccc(N(C)C)cc1 [TSA, trichostatin A, reference compound]
luciferase activity of Sp1-luc transfected gene (transcription factor Sp1): significantly stimulated

SMILES: O=S(=O)(O)c1ccc(N=C=S)cc1 [SPITC, 4-sulfophenylisothiocyanate]
expression of GSTP1 (Western blot) (GSTP1): effectively induce
expression of Sp1 (Western blot) (Sp1): no effect
expression of PSA (Western blot) (PSA): no effect
Percent of Cell Survival (T/C %) ([1]; 0.0390 μM): 99.54%
Percent of Cell Survival (T/C %) ([1]; 0.0780 μM): 101.43%
Percent of Cell Survival (T/C %) ([1]; 0.1562 μM): 101.43%
Percent of Cell Survival (T/C %) ([1]; 0.3125 μM): 99.66%
Percent of Cell Survival (T/C %) ([1]; 0.6250 μM): 98.26%
Percent of Cell Survival (T/C %) ([1]; 1.2500 μM): 101.56%
Percent of Cell Survival (T/C %) ([1]; 2.5000 μM): 104.37%
Percent of Cell Survival (T/C %) ([1]; 5.0000 μM): 100.60%
Percent of Cell Survival (T/C %) ([1]; 10.0000 μM): 101.33%
Percent of Cell Survival (T/C %) ([1]; 20.0000 μM): 99.88%

SMILES: C=CCN=C=S [AITC, allyl isothiocyanate]
expression of GSTP1 (Western blot) (GSTP1): effectively induce
expression of Sp1 (Western blot) (Sp1): minimal activities
expression of PSA (Western blot) (PSA): minimal activities
Percent of Cell Survival (T/C %) ([1]; 0.0390 μM): 98.84%
Percent of Cell Survival (T/C %) ([1]; 0.0780 μM): 98.92%
Percent of Cell Survival (T/C %) ([1]; 0.1562 μM): 98.26%
Percent of Cell Survival (T/C %) ([1]; 0.3125 μM): 98.55%
Percent of Cell Survival (T/C %) ([1]; 0.6250 μM): 97.10%
Percent of Cell Survival (T/C %) ([1]; 1.2500 μM): 99.49%
Percent of Cell Survival (T/C %) ([1]; 2.5000 μM): 83.95%
Percent of Cell Survival (T/C %) ([1]; 5.0000 μM): 47.60%
Percent of Cell Survival (T/C %) ([1]; 10.0000 μM): 41.01%
Percent of Cell Survival (T/C %) ([1]; 20.0000 μM): 38.69%
IC50 [1]: ~10000 nM
